Test results as given in US10081602B2, “Opioid agonists and uses thereof” (Nektar Therapeutics, priority 2013, dated 2018).
Values joined by “and” are separate entries in the source; they are usually repeats but may differ in a detail not shown here. Equal entries are not always repeated.

Columns and labels:
[1] = biological target: human mu (MOR) opioid receptor (Homo sapiens (Human), UniProt P35372); experiment: Radioligand competition binding assay, mu opioid receptor; settings: 10 uM, [3H]Naloxone; read-out: Mu receptor % inhibition at single concentration
Experimental: The binding affinities of certain compounds of the present invention were evaluated using radioligand binding assays in membranes prepared from CHO-K1 cells expressing recombinant human kappa (KOR) or mu (MOR) opioid receptors.
Competition binding experiments were conducted by incubating membrane protein to equilibrium in triplicate in the presence of a fixed concentration of radioligand and increasing concentrations of test compound for evaluation of binding to KOR or single concentration (10 μM) of test compound for evaluation of binding to MOR in 101 μL final volume. The radioligands used were specific for each receptor type, and the assay conditions are described in Table 1. Following incubations, the membranes were rapidly filtered through GF/B filter plate (presoaked with 0.5% polyethyleneimine), washed five times with cold 50 mM Tris-HCl, pH 7.5, and the bound radioactivity was then measured by liquid scintillation counting. Non-specific binding was measured in the presence of excess ligand; this value was subtracted from the total binding to yield the specific binding at each test concentration.
Ki (affinity of test compound) was obtained using the Cheng Prusoff correction using experimental Kd (affinity of radioligand) values that were previously determined under these assay conditions. For MOR binding, compounds were tested at one concentration, 10 μM, to evaluate its ability to inhibit specific radioligand binding. The values are expressed as percent inhibition of specific binding and greater than 50% inhibition of binding was considered to be significant.
With respect to determining MOR binding, an approach similar to one used for KOR binding was used.

[2] = system: acetic acid-induced writhing (visceral pain) in mice; experiment: Acetic acid writhing (AAW) analgesic assay; assay type: in vivo
Experimental: An analgesic assay was used to determine whether a given compound can reduce and/or prevent visceral pain in mice. The assay utilizes Swiss Albino or CD-1 male mice (5-10 mice per group), each mouse being approximately 0.015-0.030 kg on the study day. Mice were treated according to standard protocols.
The animal was given an intraperitoneal (IP) injection of an irritant (acetic acid) that induces “writhing” which may include: contractions of the abdomen, twisting and turning of the trunk, arching of the back and the extension of the hindlimbs. Mice are given a single IP injection (0.1 mL/10 g bodyweight) of a 0.5% acetic acid solution. After the injection the animals were returned to their observation enclosure and their behavior was observed. Contractions were counted between 0 and 20 minutes after the injection. The animals were used once. In certain instances, the test articles were administered at multiple doses to determine a dose response curve.
Table 4 provides the results for certain compounds of the present invention that were administered subcutaneously. Table 5 provides the results for certain compounds of the present invention that were administered orally.

[3] = system: locomotor activity of mice; experiment: Locomotor activity; assay type: in vivo; settings: oral, 30 min predose, 20 min observation
Experimental: Male Swiss Albino mice were treated orally with vehicle (0.5% HPMC+0.1% Tween80), ketazocine, Compound 12 (0.3, 3 and 30 mg/kg) or Compound 20 (0.3, 3 and 30 mg/kg) thirty minutes prior to placement in the locomotor activity chamber. Total distance travelled was measured over the twenty minute observation time following placement in the locomotor activity chamber. Data are normalized relative to percent distance travelled in the vehicle group. The efficacy of Compound 12 (reported as percent distance travelled in comparison to vehicle) was 88.85%, 83.74% and 0.08% at 0.3, 3 and 30 mg/kg dosages, respectively, while the locomotor activity of Compound 20 (reported as percent distance travelled in comparison to vehicle) was 100%, 88% and 0.03% at 0.3, 3 and 30 mg/kg dosages, respectively.

## COCCOCCOCCOCCOCCNc1ccc2c(c1)[C@]1(C)CCN(CC3CC3)[C@H](C2=O)[C@@H]1C [Example 2, (2S,6R,11R)-3-(Cyclopropylmethyl)-6,11-dimethyl-8-(2,5,8,11,14-pentaoxahexadecan-16-ylamino)-3,4,5,6-tetrahydro-2,6-methano-3-benzazocin-1(2H)-One]
[1]
  inhibition at 10 µM: 85.5%

## COCCOCC(=O)Nc1ccc2c(c1)[C@]1(C)CCN(CC3CC3)[C@H](C2=O)[C@@H]1C [Example 15, N-((2S,6R,11R)-3-(cyclopropylmethyl)-6,11-dimethyl-1-oxo-1,2,3,4,5,6-hexahydro-2,6-methanobenzo[d]azocin-8-yl)-2-(2-methoxyethoxy)acetamide]
[2]; subcutaneous, 10 mg/kg
  AAW % Efficacy: 100.0%

## COCCOCCOCCOCCOCCNc1ccc(Nc2ccc3c(c2)[C@]2(C)CCN(CC4CC4)[C@H](C3=O)[C@@H]2C)cc1 [Example 12, (2S,6R,11R)-8-((4-(2,5,8,11,14-pentaoxahexadecan-16-ylamino)phenyl)amino)-3-(cyclopropylmethyl)-6,11-dimethyl-3,4,5,6-tetrahydro-2,6-methanobenzo[d]azocin-1(2H)-one]
[2]; oral, 0.1 mg/kg
  AAW % Efficacy: 22.5%
[2]; oral, 1 mg/kg
  AAW % Efficacy: 56.9%
[2]; oral, 10 mg/kg
  AAW % Efficacy: 97.2% and 90.2%
[2]; subcutaneous, 30 mg/kg
  AAW % Efficacy: 100.0%
[3]; 0.3 mg/kg
  percent distance travelled in comparison to vehicle: 88.85%
[3]; 3 mg/kg
  percent distance travelled in comparison to vehicle: 83.74%
[3]; 30 mg/kg
  percent distance travelled in comparison to vehicle: 0.08%

## COCCOCCN1CC[C@@]2(C)c3cc(O)ccc3C(=O)[C@@H]1[C@@H]2C [Example 14, (2S,6R,11R)-8-hydroxy-3-(2-(2-methoxyethoxy)ethyl)-6,11-dimethyl-3,4,5,6-tetrahydro-2,6-methanobenzo[d]azocin-1(2H)-One]
[2]; subcutaneous, 10 mg/kg
  AAW % Efficacy: 13.2%

## COCCOCCOCCOCCOCCOc1ccc(Nc2ccc3c(c2)[C@]2(C)CCN(CC4CC4)[C@H](C3=O)[C@@H]2C)cc1 [Example 9, (2S,6R,11R)-8-((4-(2,5,8,11,14-pentaoxahexadecan-16-yloxy)phenyl)amino)-3-(cyclopropylmethyl)-6,11-dimethyl-3,4,5,6-tetrahydro-2,6-methanobenzo[d]azocin-1(2H)-one]
[2]; oral, 10 mg/kg
  AAW % Efficacy: 38.5%
[2]; subcutaneous, 0.3 mg/kg
  AAW % Efficacy: 13.3%
[2]; subcutaneous, 3 mg/kg
  AAW % Efficacy: 67.8% and 61.4%
[2]; subcutaneous, 10 mg/kg
  AAW % Efficacy: 95.4%
[2]; subcutaneous, 30 mg/kg
  AAW % Efficacy: 99.2%

## COCCOCCOCCOCCOCCNc1cccc(Nc2ccc3c(c2)[C@]2(C)CCN(CC4CC4)[C@H](C3=O)[C@@H]2C)c1 [Example 11, (2S,6R,11R)-8-((3-(2,5,8,11,14-pentaoxahexadecan-16-ylamino)phenyl)amino)-3-(cyclopropylmethyl)-6,11-dimethyl-3,4,5,6-tetrahydro-2,6-methanobenzo[d]azocin-1(2H)-One]
[2]; oral, 10 mg/kg
  AAW % Efficacy: 31.2%
[2]; subcutaneous, 0.3 mg/kg
  AAW % Efficacy: 21.1%
[2]; subcutaneous, 3 mg/kg
  AAW % Efficacy: 62.2% and 64.3%
[2]; subcutaneous, 10 mg/kg
  AAW % Efficacy: 99.1%
[2]; subcutaneous, 30 mg/kg
  AAW % Efficacy: 100.0%

## COCCOCCNCc1ccc2c(c1)[C@]1(C)CCN(CC3CC3)[C@H](C2=O)[C@@H]1C [Example 18, (2S,6R,11R)-3-(cyclopropylmethyl)-8-(((2-(2-methoxyethoxy)ethyl)amino)methyl)-6,11-dimethyl-3,4,5,6-tetrahydro-2,6-methanobenzo[d]azocin-1(2H)-one]
[2]; subcutaneous, 10 mg/kg
  AAW % Efficacy: 31.9%

## C[C@H]1[C@H]2C(=O)c3cc4sc(N)nc4cc3[C@]1(C)CCN2CC1CC1 [Step 1 of 13, (6S,10R,12R)-2-amino-7-(cyclopropylmethyl)-10,12-dimethyl-7,8,9,10-tetrahydro-6,10-methanothiazolo[4′,5′:4,5]benzo[1,2-d]azocin-5(6H)-One]
[2]; subcutaneous, 10 mg/kg
  AAW % Efficacy: 100%

## COCCOCCOCCOCCOCCOCCOCCNc1ccc2c(c1)[C@]1(C)CCN(CC3CC3)[C@H](C2=O)[C@@H]1C [Example 3, (2S,6R,11R)-3-(Cyclopropylmethyl)-8-(2,5,8,11,14,17,20-heptaoxadocosan-22-ylamino)-6,11-dimethyl-3,4,5,6-tetrahydro-2,6-methano-3-benzazocin-1 (2H)-One]
[1]
  inhibition at 10 µM: 80.6%

## COCCOCCOCCOCCOCCOc1c(O)ccc2c1[C@]1(C)CCN(CC3CC3)[C@H](C2=O)[C@@H]1C [Example 19, (2S,6R,11R)-7-(2,5,8,11,14-pentaoxahexadecan-16-yloxy)-3-(cyclopropylmethyl)-8-hydroxy-6,11-dimethyl-3,4,5,6-tetrahydro-2,6-methanobenzo[d]azocin-1(2H)-one]
[2]; subcutaneous, 10 mg/kg
  AAW % Efficacy: 31.6%

## COCCOCCOCCOCCOCCOc1ccccc1Nc1ccc2c(c1)[C@]1(C)CCN(CC3CC3)[C@H](C2=O)[C@@H]1C [Example 7, (2S,6R,11R)-8-((2-(2,5,8,11,14-pentaoxahexadecan-16-yloxy)phenyl)amino)-3-(cyclopropylmethyl)-6,11-dimethyl-3,4,5,6-tetrahydro-2,6-methanobenzo[d]azocin-1(2H)-one]
[2]; subcutaneous, 3 mg/kg
  AAW % Efficacy: 38.8%
[2]; subcutaneous, 30 mg/kg
  AAW % Efficacy: 84.8%

## COCCOCC(=O)NCc1ccc2c(c1)[C@]1(C)CCN(CC3CC3)C(C2=O)[C@@H]1C [Example 17, N,N-(((2S,6R,11R)-3-(cyclopropylmethyl)-6,11-dimethyl-1-oxo-1,2,3,4,5,6-hexahydro-2,6-methanobenzo[d]azocin-8-yl)methyl)-2-(2-methoxyethoxy)acetamide]
[2]; subcutaneous, 10 mg/kg
  AAW % Efficacy: 23.3%

## COCCOCCOCCOCCOCCNc1nc2cc3c(cc2s1)C(=O)[C@@H]1[C@H](C)[C@@]3(C)CCN1CC1CC1 [Example 13, (6S,10R,12R)-2-(2,5,8,11,14-pentaoxahexadecan-16-ylamino)-7-(cyclopropylmethyl)-10,12-dimethyl-7,8,9,10-tetrahydro-6,10-methanothiazolo[4′,5′:4,5]benzo[1,2-d]azocin-5(6H)-one]
[2]; subcutaneous, 10 mg/kg
  AAW % Efficacy: 40.2%

## COCCOCCOCCOCCOCCOc1cccc(Nc2ccc3c(c2)[C@]2(C)CCN(CC4CC4)[C@H](C3=O)[C@@H]2C)c1 [Example 8, (2S,6R,11R)-8-((3-(2,5,8,11,14-pentaoxahexadecan-16-yloxy)phenyl)amino)-3-(cyclopropylmethyl)-6,11-dimethyl-3,4,5,6-tetrahydro-2,6-methanobenzo[d]azocin-1(2H)-one]
[2]; Mus musculus, sc, subcutaneous, 30 mg/kg, read-out: AAW % Efficacy
  inhibition in vivo at 30 mg/kg: 100%
[2]; subcutaneous, 3 mg/kg
  AAW % Efficacy: 38.0%

## COCCNC(=O)c1ccc2c(c1)[C@]1(C)CCN(CC3CC3)[C@H](C2=O)[C@@H]1C [Example 16, (2S,6R,11R)-3-(cyclopropylmethyl)-N-(2-methoxyethyl)-6,11-dimethyl-1-oxo-1,2,3,4,5,6-hexahydro-2,6-methanobenzo[d]azocine-8-carboxamide]
[2]; subcutaneous, 10 mg/kg
  AAW % Efficacy: 26.4%

## COCCOCCOCCOCCOCCNc1ccc(Nc2ccc3c(c2)[C@]2(C)CCN(CC4CC4)[C@H](C3=O)[C@@H]2C)cc1 [Example 10, (2S,6R,11R)-8-((4-(2,5,8,11,14-pentaoxahexadecan-16-ylamino)phenyl)amino)-3 (cyclopropylmethyl)-6,11-dimethyl-3,4,5,6-tetrahydro-2,6-methanobenzo[d]azocin-1(2H)-one]
[2]; subcutaneous, 3 mg/kg
  AAW % Efficacy: 34.0%
[2]; subcutaneous, 30 mg/kg
  AAW % Efficacy: 100.0%

## C[C@H]1[C@H]2C(=O)c3ccc(Nc4ccc(NCCOCCOCCOCCOCCOC(F)(F)F)cc4)cc3[C@]1(C)CCN2CC1CC1 [Example 20, (2S,6R,11R)-3-(cyclopropylmethyl)-6,11-dimethyl-8-((4-((1,1,1-trifluoro-2,5,8,11,14-pentaoxahexadecan-16-yl)amino)phenyl)amino)-3,4,5,6-tetrahydro-2,6-methanobenzo[d]azocin-1(2H)-One]
[2]; oral, 0.3 mg/kg
  AAW % Efficacy: 39.1%
[2]; oral, 3 mg/kg
  AAW % Efficacy: 79.5%
[2]; oral, 30 mg/kg
  AAW % Efficacy: 100.0%
[2]; subcutaneous, 10 mg/kg
  AAW % Efficacy: 88.1%
[3]; 0.3 mg/kg
  percent distance travelled in comparison to vehicle: 100%
[3]; 3 mg/kg
  percent distance travelled in comparison to vehicle: 88%
[3]; 30 mg/kg
  percent distance travelled in comparison to vehicle: 0.03%
